Experimental data published in the CheMixHub ionic liquid set.

Test: xn = mol fraction of the nth substance listed

CC(=O)[O-].Cn1cc[n+](CCO)c1 + O
100 kPa
Conditions	viscosity [mPa·s]
293.15 K, x1 = 0.9003	93.9
298.15 K, x1 = 0.8317	41.2
298.15 K, x1 = 0.8712	56.8
303.15 K, x1 = 0.8317	32
303.15 K, x1 = 0.8712	43.6
308.15 K, x1 = 0.8317	25.4
308.15 K, x1 = 0.8818	36.7
313.15 K, x1 = 0.8632	25.8
313.15 K, x1 = 0.8712	26.6
313.15 K, x1 = 0.8818	29
323.15 K, x1 = 0.8818	19.3
328.15 K, x1 = 0.8712	14.72
333.15 K, x1 = 0.8818	13.46
333.15 K, x1 = 0.9003	14.78

CCCCCCCCCCCCCC[P+](CCCC)(CCCC)CCCC.CCCCCCCCCCCCc1ccc(S(=O)(=O)[O-])cc1 + O
100 kPa
Conditions	viscosity [mPa·s]
323.15 K, x1 = 0.3453	116
353.15 K, x1 = 0.892	148

CCCCCCCCCCCCCC[P+](CCCCCC)(CCCCCC)CCCCCC.[Cl-] + O
100 kPa, x2 = 0.818
Conditions	viscosity [mPa·s]
318.15 K	50.65
323.15 K	41.05

CCCCCCCCCn1cc[n+](C)c1.O=S(=O)([N-]S(=O)(=O)C(F)(F)F)C(F)(F)F + O
100 kPa, x2 = 0.1736
Conditions	viscosity [mPa·s]
298.15 K	72.66
308.15 K	46.59
318.15 K	31.72
323.15 K	26.65
358.15 K	10.15
363.15 K	9.09

CCCCCCC[n+]1ccn(C)c1.O=S(=O)([N-]S(=O)(=O)C(F)(F)F)C(F)(F)F + O
100 kPa, x2 = 0.1971
Conditions	viscosity [mPa·s]
308.15 K	34.86
318.15 K	24.33
323.15 K	20.69
358.15 K	8.4

CCCCCC[n+]1ccn(C)c1.O=S(=O)([N-]S(=O)(=O)C(F)(F)C(F)(F)F)C(F)(F)C(F)(F)F + O
101 kPa, x2 = 0.187
Conditions	electrical conductivity [S/m]	viscosity [mPa·s]
293.15 K	–	122
295.15 K	0.15	–

CCCCC[n+]1ccn(C)c1.C[C@H](N)C(=O)[O-] + O
viscosity [mPa·s], 100.3 kPa
Conditions	288.15 K	293.15 K	298.15 K	303.15 K	308.15 K	313.15 K	318.15 K	323.15 K	328.15 K
x1 = 0.0003008	1.156	1.015	0.9	0.81	0.725	0.661	0.604	0.554	0.511
x1 = 0.0003999	1.162	1.022	0.907	0.813	0.732	0.664	0.606	0.556	0.513
x1 = 0.0005025	1.167	1.027	0.911	0.817	0.735	0.666	0.608	0.559	0.515
x1 = 0.001012	1.203	1.057	0.937	0.838	0.755	0.684	0.626	0.573	0.529
x1 = 0.00302	1.361	1.197	1.057	0.939	0.841	0.759	0.688	0.629	–
x1 = 0.005081	1.512	1.325	1.163	1.027	0.916	0.827	0.749	0.685	–
x1 = 0.006922	1.657	1.445	1.272	1.118	0.997	0.893	0.805	0.736	–
x1 = 0.009062	1.82	1.574	1.367	1.208	1.07	0.958	0.867	0.781	–
x1 = 0.01107	1.956	1.696	1.476	1.3	1.146	1.026	0.928	0.831	–
x1 = 0.01292	2.098	1.817	1.578	1.378	1.223	1.087	0.985	0.887	–
x1 = 0.0148	2.243	1.938	1.674	1.467	1.291	1.155	1.035	0.931	–
x1 = 0.01797	2.456	2.105	1.823	1.596	1.392	1.252	1.114	0.999	–

CCCC[n+]1ccccc1.F[B-](F)(F)F + O
Conditions	electrical conductivity [S/m]	viscosity [mPa·s]
283.15 K, 101.3 kPa, x2 = 0.263	–	84
283.15 K, 101.3 kPa, x2 = 0.637	–	15.85
283.15 K, 101.3 kPa, x2 = 0.724	–	10.78
288.15 K, 101.3 kPa, x2 = 0.11	–	153.8
288.15 K, 101.3 kPa, x2 = 0.391	–	35.82
288.15 K, 101.3 kPa, x2 = 0.637	–	13.01
298.15 K, 101 kPa, x1 = 0.000191	0.096	–
298.15 K, 101 kPa, x1 = 0.0004053	0.191	–
298.15 K, 101 kPa, x1 = 0.0005259	0.247	–
298.15 K, 101 kPa, x1 = 0.0007203	0.33	–
298.15 K, 101 kPa, x1 = 0.0008354	0.365	–
298.15 K, 101 kPa, x1 = 0.0009829	0.44	–
298.15 K, 101 kPa, x1 = 0.001125	0.486	–
298.15 K, 101 kPa, x1 = 0.001254	0.542	–
298.15 K, 101 kPa, x1 = 0.001434	0.6	–
298.15 K, 101 kPa, x1 = 0.001585	0.659	–
298.15 K, 101 kPa, x1 = 0.001811	0.743	–
298.15 K, 101 kPa, x1 = 0.001984	0.819	–
298.15 K, 101 kPa, x1 = 0.002073	0.846	–
298.15 K, 101 kPa, x1 = 0.002208	0.889	–
298.15 K, 101 kPa, x1 = 0.002434	0.962	–
298.15 K, 101 kPa, x1 = 0.002597	1.02	–
298.15 K, 101 kPa, x1 = 0.002828	1.09	–
298.15 K, 101 kPa, x1 = 0.002875	1.11	–
298.15 K, 101 kPa, x1 = 0.003074	1.17	–
298.15 K, 101 kPa, x1 = 0.003174	1.2	–
298.15 K, 101.3 kPa, x2 = 0.724	–	6.55
303.15 K, 101.3 kPa, x2 = 0.11	–	67.1
303.15 K, 101.3 kPa, x2 = 0.549	–	11.1
313.15 K, 101.3 kPa, x2 = 0.549	–	8.32
313.15 K, 101.3 kPa, x2 = 0.724	–	4.34
328.15 K, 101.3 kPa, x2 = 0.11	–	24.88
328.15 K, 101.3 kPa, x2 = 0.724	–	3.11
333.15 K, 101.3 kPa, x2 = 0.414	–	7.99
338.15 K, 101.3 kPa, x2 = 0.637	–	3.52
343.15 K, 101.3 kPa, x2 = 0.11	–	15.89
343.15 K, 101.3 kPa, x2 = 0.263	–	9.35
343.15 K, 101.3 kPa, x2 = 0.391	–	6.91
348.15 K, 101.3 kPa, x2 = 0	–	18.45
